Where two headings read alike, the source gives them in different places.
Assays:
[1] = Description: (§1) A flat sheet microporous polypropylene membrane (Celgard 2400, 38% porosity, 0.05 micron average pore size, 25 micron thick) was wet with polypropylene glycol (PPG) MW 4000 obtained from the Dow Chemical Company by putting a few drops of PPG on the membrane sheet and spreading it out. […] The excess PPG was wiped off and the membrane with immobilized PPG was ready for use. […] The same wetting procedure can be used for hollow fiber membranes. In a module form, the fibers can be wet by pumping PPG slowly through the lumens of the fibers. The excess PPG left in the fibers can thereafter be removed by either blowing air or passing water through the tube side of the fibers.
A flat sheet immobilized liquid membrane prepared according to Example 1 was placed between the two compartments of a cell. Surface area of the membrane was 8 cm^2. One cell compartment contained an aqueous waste solution containing para-nitrophenol (PNP) at a concentration of 4000 to 5000 mg/L and 20 wt % KCl. The other compartment contained 0.1N NaOH as an aqueous strip solution. Both solutions were circulated by pumps. Total volume of liquid on each side of the membrane was 100 ml. The system was at room temperature. PNP levels in both compartments were measured periodically using a spectrophotometric method.

[2] = Partition coefficient between polyalkylene glycol (PPG) and water
Description: *Kp = Acid concentration in PPG .div. Acid Concentration in H2 O at […]

[3] = known octanol/water system; cited from earlier work
Remark: listed apart in the source
[4] = Stability/integrity of supported liquid membrane; format: physicochemical
Description: as §1
The process of Example 2 was repeated but with octanol, a typical organic solvent with high affinity for p-nitrophenol, as the liquid membrane.

[5] = Transport across hollow fiber supported liquid membrane (Examples 5 and 6); format: physicochemical; conditions: Celgard X20 400 hollow fibers; after 3 hours (Example 5)
Description: Celgard X20 400 hollow fibers (40% porosity, 0.065 micron pore size, internal diameter 400 microns, outer diameter 460 microns) were potted into a module containing 54 fibers that were 18 cm long. The total membrane area was 120 cm^2. PPG MW 4000 was pumped through the lumens of the fibers to wet them. Water was then pumped through to remove excess PPG. The module having PPG immobilized in the fiber walls was then used to remove PNP from an aqueous solution containing approximately 4000 to 5000 mg/L PNP and 20 wt % KCl. The aqueous stripping solution was 0.1N NaOH. The set up was similar to that used in Example 2. The initial rate of PNP transport across the hollow fiber membrane was about 4 mg/hr-cm^2 membrane area. After 3 hours of operation PNP concentration in the stripping side went up to 4400 mg/L and that in the feed side dropped to 45 mg/L.
Using a procedure similar to that of Example 5 but using polysulfone hollow fibers (Permea, St. Louis) as the membrane support, selective extraction of PNP from an aqueous waste solution was examined. Ultrafiltration polysulfone hollow fibers (18 cm long, MW cutoff 160,000, OD 1150 microns, ID 870 microns) were potted into a module containing 10 fibers that were 17.6 cm long. The effective membrane area was about 48 cm^2. The initial rate of transport was about 1 mg PNP/hr-cm^2 membrane area.

[6] = 65° C. (Example 26)
Procedure: Celgard 2500 (flat sheet microporous polypropylene membrane) was wetted with PPG-4000 and sandwiched between two compartments of a membrane cell as described in Example 2. One compartment was filled with a aqueous solution containing 5000 mg/L butanol. Air was swept in the other compartment to remove butanol diffusing through the membrane, thus creating driving force for further transport. The system was operated at 65° C.

[7] = 5 wt % acid, 20 wt % KCl, strip 0.1N NaOH, room temperature (Table 1)
[8] = PPG in Celgard 2400, strip 0.1N NaOH, room temperature (Table 3)
[9] = PPG MW about 4000 in CELGARD 2400, 20 wt % NaCl
[10] = Celgard 2402, overnight (Example 4)
[11] = Celgard 2500, overnight (Example 3)
[12] = overnight, feed pH 5.4, 20 wt. % KCl (Example 29)
[13] = 30 wt. % Pluronic L-81 in PPG-4000 (Example 23)

## CC(=O)O [Acetic Acid (C2), Acetic Acid]
[1]; [7]
  Initial Rate: 1.6 mg/hr-cm^2

## C=CC(=O)O [Acrylic Acid]
[2]
  K PPG-4000/Water: 5
[3]
  K Octanol/Water: 1.35

## CCCC(=O)O [Butyric Acid (C4), Butyric Acid]
Not told
  Permeability: 4.2e-05 cm/s

## CCCCCC(=O)O [Caproic Acid (C6), Caproic Acid]
[2]
  Partition Coeff. (Kp): 83
[1]; carbamate-functional liquid membrane drawing 12 (Example 2d)
  initial rate of caproic acid transport relative to PPG membrane: about the same as with PPF-4000
[1]; carbamate-functional liquid membrane drawing 12, after 23 hours, initial 1800 ppm (Example 2d)
  caproic acid level in waste solution: 13 ppm
[8]
  Permeability: 0.0004 cm/s

## O=CO [Formic Acid (C1), Formic Acid]
[2]; acid concentration in PPG ÷ acid concentration in H2O at equilibrium
  Partition Coeff. (Kp): 0.45
[1]
  Initial Rate: 1.0 mg/hr-cm^2
[8]
  Permeability: 5.5e-06 cm/s
pH 1.6
  Rate: 1.0
pH 5
  Rate: 0.026

## [Cl-].[K+] [KCl]
[1]; Example 2
  chloride concentration on waste side: over 100 g/L
[1]; Example 2, overnight, measure of KCl transport
  chloride content in caustic strip solution: 0.049 g/L

## [Cl-].[Na+] [NaCl]
[4]; [9]
  salt passage through liquid membrane: essentially no salt to pass through

## O=[N+]([O-])c1ccc(O)cc1 [PNP, para-nitrophenol]
[2]
  K PPG-4000/Water: 300
[1]; [10]
  PNP concentration in feed side: 10 mg/L
  PNP concentration in stripping side: 4900 mg/L
[1]; [11]
  PNP concentration in feed side: 5 mg/L
  PNP concentration in stripping side: 4430 mg/L
[1]; Example 2
  separation factor for PNP over KCl: at least 2000
[1]; Example 2, overnight
  PNP concentration difference caustic side vs waste side: over 1000 times
  PNP concentration in caustic side: about 3800 mg/L
[1]; Example 2, overnight, initial 4000 to 5000 mg/L
  PNP concentration in waste side: about 3 mg/L
[1]; Igepal CO-210 liquid membrane, after 24 hours, initial 4397 ppm (Example 2f)
  PNP level in waste solution: 10 ppm
[1]; PBG MW 2000, overnight (Example 20)
  ratio of PNP concentration caustic side over waste side: about 1300
[1]; carbamate-functional liquid membrane drawing 12, after 5.5 hours, initial 4300 ppm (Example 2c)
  PNP level in waste solution: 25 ppm
[1]; carbamate-functional liquid membrane drawing 12, overnight (Example 2c)
  PNP level in waste solution: 5 ppm
[1]; castor oil liquid membrane, after 96 hours, initial 4272 ppm (Example 2e)
  PNP level in waste solution: 4 ppm
[1]; [12]
  PNP removal from the feed solution: about 99%
[1]; polybutylene glycol MW approximately 5000, overnight (Example 21)
  PNP ratio (concentration of strip side to feed side): 120
[1]; strip 50 wt. % PEG-200, after about 9 hours, initial 4449 ppm (Example 2b)
  PNP level in waste solution: 192 ppm
[1]; strip PEG-200, after about 8 hours, initial 4700 ppm (Example 2a)
  PNP level in waste solution: 12 ppm
[1]; strip PEG-200, after two days, initial 4700 ppm (Example 2a)
  PNP level in waste solution: 0.6 ppm
[5]
  PNP concentration in feed side: 45 mg/L
  PNP concentration in stripping side: 4400 mg/L

## Oc1ccccc1 [Phenol]
[2]
  K PPG-4000/Water: 150
[1]
  concentration in the feed: about 5 mg/L
  concentration in the stripping solution: about 5050 mg/L

## CCC(=O)O [Propionic Acid (C3), Propionic Acid]
[1]; [7]
  Initial Rate: 5.4 mg/hr-cm^2
Not told
  Permeability: 3.3e-05 cm/s

## CCCCC(=O)O [Valeric Acid (C5), Valeric Acid]
[2]
  Partition Coeff. (Kp): 24.6
Not told
  Permeability: 0.00016 cm/s

## N.N.O=S(=O)(O)O [ammonium sulfate]
[1]
  ammonium sulfate detected in the stripping solution: no ammonium sulfate was detected

## O=C(O)c1ccccc1 [benzoic acid]
[1]; feed pH 5.4 (Example 29)
  benzoic acid passage through membrane: virtually blocked by the membrane
[1]; overnight, feed pH 2.5 (Example 30)
  remaining in feed / transported: virtually gone from the feed
[1]; [12]
  benzoic acid detected in aqueous strip solution: < 1 % of feed
[1]; overnight, from hydrolysis of ethyl benzoate (Example 33)
  benzoic acid level in strip solution: about 420 mg/L

## CCCCO [butanol]
[6]; PPG-4000 in Celgard 2500, air sweep
  initial rate of butanol removal: about 7 mg/hr-cm^2
[6]; after about 5 hr, initial 5000 mg/L
  butanol concentration in the aqueous solution: about 400 mg/L

## CCOC(=O)c1ccccc1 [ethyl benzoate]
[1]; PPG membrane, feed pH 7.1, strip 0.1N NaOH, 23° C. (Example 33)
  permeability of ethyl benzoate through the membrane: about 9×10^-4 cm/sec
[1]; overnight, initial 500 mg/L (Example 33)
  ethyl benzoate concentration in the feed side: 1 mg/L

## N#C/C=C/C#N [fumaronitrile]
[1]
  initial rate of fumaronitrile transport: about 0.5 mg/hr-cm^2

## O=C1C=CC(=O)N1 [maleimide]
[1]; [13]
  change of initial rate of maleimide transport vs Example 22: more than doubled
  initial rate of maleimide transport: 2.5 mg/hr-cm^2
[1]; PPG-4000, 7,000 mg/L maleimide, 40 wt. % ammonium sulfate (Example 22)
  initial rate of maleimide transport: about 1.2 mg/hr-cm^2

## CCCCCCCCO [octanol, reference compound]
[4]; octanol liquid membrane in operation (Example 25)
  time to breakdown of immobilized liquid membrane: about 10 minutes

## Nc1ccc([N+](=O)[O-])cc1 [p-nitroaniline]
[1]; feed pH 9, ~500 mg/L, strip 0.1N nitric acid (Example 8)
  initial rate of PNA transport: about 1.5 mg/hr-cm^2
[1]; overnight (Example 8)
  PNA level in the feed: 70 mg/L
  PNA level in the stripping solution: 450 mg/L

## O [water]
[4]; [9]
  water movement (diffusion) through liquid membrane: very little water movement
